Assay results reported in ChEMBL document CHEMBL5257114, “Discovery of imidazo[1,2-b]pyridazine macrocyclic derivatives as novel ALK inhibitors capable of combating multiple resistant mutants” (Bioorg Med Chem Lett, 2023).

System: KARPAS-299
Experiment: Antiproliferative activity against human KARPAS-299 cells assessed as cell growth inhibition by CCK-8 assay
Settings: not given

| Compound | IC50 |
| --- | --- |
| C[C@H]1CNC(=O)c2cnn3ccc(nc23)N[C@H](C)c2cc(F)ccc2O1 [REPOTRECTINIB] | 40 nM |
| C[C@H]1Nc2ccc3ncc(n3n2)C(=O)NC2(CC2)COc2ccc(F)cc21 | 39 nM |
| C[C@H]1CNC(=O)c2cnc3ccc(nn23)N[C@H](C)c2cc(F)ccc2O1 | 72 nM |

System: BaF3
Experiment: Antiproliferative activity against EML4-ALK-L1196M/G1202R mutated mouse BaF3 cells assessed as cell growth inhibition by CCK-8 assay
Type: functional, cell-based
Settings: not given

| Compound | IC50 |
| --- | --- |
| C[C@H]1CNC(=O)c2cnn3ccc(nc23)N[C@H](C)c2cc(F)ccc2O1 [REPOTRECTINIB] | 208 nM |
| C[C@H]1Nc2ccc3ncc(n3n2)C(=O)NC2(CC2)COc2ccc(F)cc21 | 76 nM |
| C[C@H]1CNC(=O)c2cnc3ccc(nn23)N[C@H](C)c2cc(F)ccc2O1 | 147 nM |

System: not listed separately
Experiment: Antiproliferative activity against mouse Ba/F3 EML4-ALK-G1202R cells assessed as cell growth inhibition by CCK-8 assay
Type: functional, cell-based
Settings: not given

| Compound | IC50 |
| --- | --- |
| C[C@H]1CNC(=O)c2cnn3ccc(nc23)N[C@H](C)c2cc(F)ccc2O1 [REPOTRECTINIB] | 164 nM |
| C[C@H]1Nc2ccc3ncc(n3n2)C(=O)NC2(CC2)COc2ccc(F)cc21 | 56 nM |
| C[C@H]1CNC(=O)c2cnc3ccc(nn23)N[C@H](C)c2cc(F)ccc2O1 | 84 nM |

System: not listed separately
Experiment: Metabolic stability in human liver microsomes assessed as clearance
Type: ADME, Microsome
Settings: read-out: CLH

| Compound | microsomal CLint |
| --- | --- |
| C[C@H]1CNC(=O)c2cnn3ccc(nc23)N[C@H](C)c2cc(F)ccc2O1 [REPOTRECTINIB] | 25.6 µL/min/mg |
| C[C@H]1Nc2ccc3ncc(n3n2)C(=O)NC2(CC2)COc2ccc(F)cc21 | 41 µL/min/mg |

System: not listed separately
Experiment: Inhibition of ALK L1196M/G1202R mutant (unknown origin)
Set-up: species or system Homo sapiens
Settings: not given

| Compound | IC50 |
| --- | --- |
| C=CC[C@H]1Nc2ccc3ncc(n3n2)C(=O)NC2(CC2)COc2ccc(F)cc21 | 34.4 nM |
| CC(C)N1Cc2cc(F)ccc2OCC(C)(C)NC(=O)c2cnc3ccc1nn23 | 328 nM |
| C[C@H]1Nc2ccc3ncc(n3n2)C(=O)NC2(CC2)COc2ccc(F)cc21 | 24 nM |
| CC1(C)COc2ccc(F)cc2CN(C2CCC2)c2ccc3ncc(n3n2)C(=O)N1 | 442 nM |
| C[C@H]1Nc2ccc3ncc(n3n2)C(=O)NC2(CC2)COc2cc(F)ccc21 | 984 nM |
| C[C@H]1Nc2ccc3ncc(n3n2)C(=O)NC2(CC2)COc2ccc(Cl)cc21 | 105 nM |
| C[C@H]1Nc2ccc3ncc(n3n2)C(=O)NCCOc2ccc(F)cc21 | 59 nM |

Further lines, results first:

| IC50 | Compound |
| --- | --- |
| 20 nM | C[C@H]1CNC(=O)c2cnn3ccc(nc23)N[C@H](C)c2cc(F)ccc2O1 [REPOTRECTINIB] |
| 84 nM | CCN1Cc2cc(F)ccc2OCC(C)(C)NC(=O)c2cnc3ccc1nn23 |
| 18 nM | C[C@H]1Nc2ccc3ncc(n3n2)C(=O)NC2(CCC2)COc2ccc(F)cc21 |
| 37 nM | CC1(C)COc2ccc(F)cc2CNc2ccc3ncc(n3n2)C(=O)N1 |
| 309 nM | CC1(C)COc2ccc(F)cc2CN(C2CC2)c2ccc3ncc(n3n2)C(=O)N1 |
| 95 nM | CN1Cc2cc(F)ccc2OCC(C)(C)NC(=O)c2cnc3ccc1nn23 |
| 22 nM | C[C@H]1CNC(=O)c2cnc3ccc(nn23)N[C@H](C)c2cc(F)ccc2O1 |
| 173 nM | C[C@H]1Nc2ccc3ncc(n3n2)C(=O)NC2(CC2)COc2ccccc21 |
| 26 nM | C[C@H]1Nc2ccc3ncc(n3n2)C(=O)NC(C)(C)COc2ccc(F)cc21 |
| 85 nM | Cc1cc2ncc3n2nc1N[C@H](C)c1cc(F)ccc1OCC1(CC1)NC3=O |

System: not listed separately
Experiment: Metabolic stability in human liver microsomes assessed as half life
Type: ADME, Microsome
Settings: not given

| Compound | half-life |
| --- | --- |
| C[C@H]1CNC(=O)c2cnn3ccc(nc23)N[C@H](C)c2cc(F)ccc2O1 [REPOTRECTINIB] | 54.1 min |
| C[C@H]1Nc2ccc3ncc(n3n2)C(=O)NC2(CC2)COc2ccc(F)cc21 | 33.8 min |

Target: ALK tyrosine kinase receptor (Homo sapiens, UniProt Q9UM73)
Experiment: Inhibition of wild type ALK (unknown origin)
Settings: not given

Sequence of ALK tyrosine kinase receptor (Homo sapiens, UniProt Q9UM73) (Q9UM73 whole entry): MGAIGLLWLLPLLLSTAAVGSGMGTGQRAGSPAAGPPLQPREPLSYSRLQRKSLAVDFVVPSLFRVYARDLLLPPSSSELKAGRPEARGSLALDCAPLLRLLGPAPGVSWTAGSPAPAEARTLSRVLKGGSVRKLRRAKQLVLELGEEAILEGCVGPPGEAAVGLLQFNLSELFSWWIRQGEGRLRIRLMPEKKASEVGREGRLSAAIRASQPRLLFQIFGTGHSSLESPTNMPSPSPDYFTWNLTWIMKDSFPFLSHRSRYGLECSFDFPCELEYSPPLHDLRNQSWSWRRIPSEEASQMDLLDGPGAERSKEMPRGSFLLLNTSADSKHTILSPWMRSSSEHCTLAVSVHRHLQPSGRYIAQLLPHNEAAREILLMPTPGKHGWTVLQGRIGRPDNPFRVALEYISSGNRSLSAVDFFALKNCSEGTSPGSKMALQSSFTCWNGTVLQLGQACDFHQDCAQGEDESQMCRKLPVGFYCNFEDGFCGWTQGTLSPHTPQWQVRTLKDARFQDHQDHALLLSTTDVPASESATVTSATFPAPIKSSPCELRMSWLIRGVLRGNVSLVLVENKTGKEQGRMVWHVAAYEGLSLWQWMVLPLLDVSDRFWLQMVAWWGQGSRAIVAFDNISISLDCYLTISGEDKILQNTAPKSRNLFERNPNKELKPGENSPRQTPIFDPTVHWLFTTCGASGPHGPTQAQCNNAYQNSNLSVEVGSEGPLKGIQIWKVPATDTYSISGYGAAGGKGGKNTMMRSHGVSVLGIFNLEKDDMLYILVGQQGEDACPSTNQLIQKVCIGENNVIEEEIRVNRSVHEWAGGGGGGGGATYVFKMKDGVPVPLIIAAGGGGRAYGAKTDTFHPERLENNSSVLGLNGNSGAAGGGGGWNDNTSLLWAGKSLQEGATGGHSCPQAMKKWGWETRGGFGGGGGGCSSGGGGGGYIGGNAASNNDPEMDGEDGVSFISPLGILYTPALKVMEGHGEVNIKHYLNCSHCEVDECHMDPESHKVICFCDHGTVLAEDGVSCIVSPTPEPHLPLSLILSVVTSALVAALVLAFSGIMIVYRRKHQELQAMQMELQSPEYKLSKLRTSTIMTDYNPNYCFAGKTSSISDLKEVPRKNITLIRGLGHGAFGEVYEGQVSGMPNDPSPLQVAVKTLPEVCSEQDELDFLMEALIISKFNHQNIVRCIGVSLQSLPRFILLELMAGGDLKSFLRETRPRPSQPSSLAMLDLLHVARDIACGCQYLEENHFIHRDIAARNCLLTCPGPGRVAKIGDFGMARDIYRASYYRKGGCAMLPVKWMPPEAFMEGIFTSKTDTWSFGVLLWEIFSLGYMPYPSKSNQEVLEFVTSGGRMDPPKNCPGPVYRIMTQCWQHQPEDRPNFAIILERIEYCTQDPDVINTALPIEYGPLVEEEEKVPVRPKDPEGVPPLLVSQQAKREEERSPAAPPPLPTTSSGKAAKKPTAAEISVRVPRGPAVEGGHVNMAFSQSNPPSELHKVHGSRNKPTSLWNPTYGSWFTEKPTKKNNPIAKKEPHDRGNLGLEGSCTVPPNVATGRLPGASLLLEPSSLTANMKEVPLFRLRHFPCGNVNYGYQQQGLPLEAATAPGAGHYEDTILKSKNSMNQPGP

| Compound | IC50 |
| --- | --- |
| C=CC[C@H]1Nc2ccc3ncc(n3n2)C(=O)NC2(CC2)COc2ccc(F)cc21 | 9.7 nM |
| CC(C)N1Cc2cc(F)ccc2OCC(C)(C)NC(=O)c2cnc3ccc1nn23 | 99 nM |
| C[C@H]1Nc2ccc3ncc(n3n2)C(=O)NC2(CC2)COc2ccc(F)cc21 | 4.2 nM |
| CC1(C)COc2ccc(F)cc2CN(C2CCC2)c2ccc3ncc(n3n2)C(=O)N1 | 159 nM |
| C[C@H]1Nc2ccc3ncc(n3n2)C(=O)NC2(CC2)COc2cc(F)ccc21 | 373 nM |
| C[C@H]1Nc2ccc3ncc(n3n2)C(=O)NC2(CC2)COc2ccc(Cl)cc21 | 29 nM |
| C[C@H]1Nc2ccc3ncc(n3n2)C(=O)NCCOc2ccc(F)cc21 | 13 nM |
| CCC[C@H]1Nc2ccc3ncc(n3n2)C(=O)NC2(CC2)COc2ccc(F)cc21 | 415 nM |

Next, values leading:

| IC50 | Compound |
| --- | --- |
| 27 nM | CCN1Cc2cc(F)ccc2OCC(C)(C)NC(=O)c2cnc3ccc1nn23 |
| 7.6 nM | C[C@H]1Nc2ccc3ncc(n3n2)C(=O)NC2(CCC2)COc2ccc(F)cc21 |
| 19 nM | CC1(C)COc2ccc(F)cc2CNc2ccc3ncc(n3n2)C(=O)N1 |
| 482 nM | C[C@@H]1Nc2ccc3ncc(n3n2)C(=O)NC2(CC2)COc2ccc(F)cc21 |
| 77 nM | CC1(C)COc2ccc(F)cc2CN(C2CC2)c2ccc3ncc(n3n2)C(=O)N1 |
| 25 nM | CN1Cc2cc(F)ccc2OCC(C)(C)NC(=O)c2cnc3ccc1nn23 |
| 5.1 nM | C[C@H]1CNC(=O)c2cnc3ccc(nn23)N[C@H](C)c2cc(F)ccc2O1 |
| 27 nM | C[C@H]1Nc2ccc3ncc(n3n2)C(=O)NC2(CC2)COc2ccccc21 |
| 8.3 nM | C[C@H]1Nc2ccc3ncc(n3n2)C(=O)NC(C)(C)COc2ccc(F)cc21 |
| 18 nM | Cc1cc2ncc3n2nc1N[C@H](C)c1cc(F)ccc1OCC1(CC1)NC3=O |

Target: ALK tyrosine kinase receptor (Homo sapiens, UniProt Q9UM73, G1202R)
Experiment: Inhibition of ALK G1202R mutant (unknown origin)
Settings: not given

Sequence of ALK tyrosine kinase receptor (Homo sapiens, UniProt Q9UM73, G1202R) (Q9UM73 19-1620 G1202R limits assumed): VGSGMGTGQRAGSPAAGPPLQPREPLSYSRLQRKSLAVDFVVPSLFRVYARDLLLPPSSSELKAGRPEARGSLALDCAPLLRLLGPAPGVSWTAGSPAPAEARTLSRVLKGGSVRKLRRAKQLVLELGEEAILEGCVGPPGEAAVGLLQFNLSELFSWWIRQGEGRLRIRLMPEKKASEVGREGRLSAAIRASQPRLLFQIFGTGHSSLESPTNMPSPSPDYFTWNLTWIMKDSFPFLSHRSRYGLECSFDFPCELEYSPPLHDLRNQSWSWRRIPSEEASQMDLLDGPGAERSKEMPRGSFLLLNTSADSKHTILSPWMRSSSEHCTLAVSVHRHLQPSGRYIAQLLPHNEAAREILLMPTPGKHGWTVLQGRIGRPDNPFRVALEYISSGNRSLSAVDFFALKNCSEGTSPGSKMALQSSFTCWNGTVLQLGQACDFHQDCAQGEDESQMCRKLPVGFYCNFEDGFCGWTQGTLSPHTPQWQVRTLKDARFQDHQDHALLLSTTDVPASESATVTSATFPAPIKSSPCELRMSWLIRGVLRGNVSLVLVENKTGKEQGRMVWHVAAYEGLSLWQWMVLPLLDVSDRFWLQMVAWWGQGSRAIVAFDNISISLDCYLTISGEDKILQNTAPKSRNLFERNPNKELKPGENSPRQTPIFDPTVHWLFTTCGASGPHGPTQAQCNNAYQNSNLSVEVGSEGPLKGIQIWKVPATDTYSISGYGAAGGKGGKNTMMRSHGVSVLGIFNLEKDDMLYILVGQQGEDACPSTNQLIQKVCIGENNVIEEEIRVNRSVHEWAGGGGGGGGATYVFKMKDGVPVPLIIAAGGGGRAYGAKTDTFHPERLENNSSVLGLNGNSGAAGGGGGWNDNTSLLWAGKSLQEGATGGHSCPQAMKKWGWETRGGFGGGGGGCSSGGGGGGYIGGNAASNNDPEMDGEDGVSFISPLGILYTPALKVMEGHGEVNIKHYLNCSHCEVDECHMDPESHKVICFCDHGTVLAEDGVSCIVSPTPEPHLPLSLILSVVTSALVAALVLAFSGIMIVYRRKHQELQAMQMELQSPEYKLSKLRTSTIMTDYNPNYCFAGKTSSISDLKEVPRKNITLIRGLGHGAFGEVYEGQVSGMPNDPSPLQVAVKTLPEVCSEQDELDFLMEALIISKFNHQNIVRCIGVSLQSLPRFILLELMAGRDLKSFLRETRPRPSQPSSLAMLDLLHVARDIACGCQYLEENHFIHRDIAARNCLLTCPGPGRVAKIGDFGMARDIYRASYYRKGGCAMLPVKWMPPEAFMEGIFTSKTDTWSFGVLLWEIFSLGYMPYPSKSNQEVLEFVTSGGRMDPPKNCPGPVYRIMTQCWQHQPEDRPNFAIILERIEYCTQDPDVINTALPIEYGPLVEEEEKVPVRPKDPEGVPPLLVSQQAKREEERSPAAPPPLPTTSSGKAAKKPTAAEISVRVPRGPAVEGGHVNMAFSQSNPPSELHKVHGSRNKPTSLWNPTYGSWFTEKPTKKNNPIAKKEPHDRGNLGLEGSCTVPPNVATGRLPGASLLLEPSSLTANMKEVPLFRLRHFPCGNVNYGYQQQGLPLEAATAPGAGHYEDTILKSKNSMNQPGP

| Compound | IC50 |
| --- | --- |
| C=CC[C@H]1Nc2ccc3ncc(n3n2)C(=O)NC2(CC2)COc2ccc(F)cc21 | 64 nM |
| CC(C)N1Cc2cc(F)ccc2OCC(C)(C)NC(=O)c2cnc3ccc1nn23 | 145 nM |
| C[C@H]1Nc2ccc3ncc(n3n2)C(=O)NC2(CC2)COc2ccc(F)cc21 | 8 nM |
| CC1(C)COc2ccc(F)cc2CN(C2CCC2)c2ccc3ncc(n3n2)C(=O)N1 | 200 nM |
| C[C@H]1Nc2ccc3ncc(n3n2)C(=O)NC2(CC2)COc2cc(F)ccc21 | 993 nM |
| C[C@H]1Nc2ccc3ncc(n3n2)C(=O)NC2(CC2)COc2ccc(Cl)cc21 | 56 nM |
| C[C@H]1Nc2ccc3ncc(n3n2)C(=O)NCCOc2ccc(F)cc21 | 28 nM |
| CCC[C@H]1Nc2ccc3ncc(n3n2)C(=O)NC2(CC2)COc2ccc(F)cc21 | 1000 nM |

Next, values leading:

| IC50 | Compound |
| --- | --- |
| 22 nM | CCN1Cc2cc(F)ccc2OCC(C)(C)NC(=O)c2cnc3ccc1nn23 |
| 4.7 nM | C[C@H]1Nc2ccc3ncc(n3n2)C(=O)NC2(CCC2)COc2ccc(F)cc21 |
| 20 nM | CC1(C)COc2ccc(F)cc2CNc2ccc3ncc(n3n2)C(=O)N1 |
| 1000 nM | C[C@@H]1Nc2ccc3ncc(n3n2)C(=O)NC2(CC2)COc2ccc(F)cc21 |
| 82 nM | CC1(C)COc2ccc(F)cc2CN(C2CC2)c2ccc3ncc(n3n2)C(=O)N1 |
| 19 nM | CN1Cc2cc(F)ccc2OCC(C)(C)NC(=O)c2cnc3ccc1nn23 |
| 11 nM | C[C@H]1CNC(=O)c2cnc3ccc(nn23)N[C@H](C)c2cc(F)ccc2O1 |
| 98 nM | C[C@H]1Nc2ccc3ncc(n3n2)C(=O)NC2(CC2)COc2ccccc21 |
| 6.4 nM | C[C@H]1Nc2ccc3ncc(n3n2)C(=O)NC(C)(C)COc2ccc(F)cc21 |
| 47 nM | Cc1cc2ncc3n2nc1N[C@H](C)c1cc(F)ccc1OCC1(CC1)NC3=O |

System: not listed separately
Experiment: Metabolic stability in human liver microsomes assessed as parent compound remaining measured after 60 mins
Type: ADME, Microsome
Settings: read-out: Stability

| Compound | remaining at 1 h |
| --- | --- |
| C[C@H]1CNC(=O)c2cnn3ccc(nc23)N[C@H](C)c2cc(F)ccc2O1 [REPOTRECTINIB] | 46.1% |
| C[C@H]1Nc2ccc3ncc(n3n2)C(=O)NC2(CC2)COc2ccc(F)cc21 | 28.8% |
